From patent publication USRE46630E1, “Substituted 4-pyridones and their use as inhibitors of neutrophil elastase activity” (Boehringer Ingelheim International GmbH, priority 2012, dated 2017) come the findings set out here.

The target of this experiment is T1, Human neutrophil elastase (Homo sapiens, UniProt P08246).
T1 construct: purchased Calbiochem 324681
T1 sequence (P08246 30-267): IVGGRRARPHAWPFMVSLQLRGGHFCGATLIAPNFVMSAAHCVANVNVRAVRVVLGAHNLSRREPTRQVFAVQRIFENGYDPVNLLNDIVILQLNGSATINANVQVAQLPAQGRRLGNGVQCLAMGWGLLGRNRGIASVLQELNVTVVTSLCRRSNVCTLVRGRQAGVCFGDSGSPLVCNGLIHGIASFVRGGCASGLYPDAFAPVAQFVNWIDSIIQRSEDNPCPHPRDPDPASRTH
Kind of experiment: Human Neutrophil Elastase Assay. In kind it is biochemical. To be noted: Neutrophil Elastase assay; substrate MeOSuc-Ala-Ala-Pro-Val-AMC 250 μM; 15 min preincubation, 60 min incubation at room temperature; pH 7.5. The method, boiled down: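 Run in 100 mM Tris, 500 mM NaCl, pH 7.5 with 0.01% BSA, with compounds prediluted in DMSO then buffer (5% DMSO final). Fluorescence was read at 380 nm excitation/460 nm emission after enzyme inactivation. Values were normalised to inactivated-enzyme (0%) and uninhibited-enzyme (100%) controls.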

The structures appear in SMILES notation.

For the compound `Cc1nc(CNC(=O)c2cn(C(C)c3ccc(C#N)cc3)c(C)c(-c3cccc(C(F)F)c3)c2=O)no1` (stereo not shown) [Example 8.23], the IC50 was 3.4 nM.

As to `CCOCCNC(=O)c1cn(C(C)c2ccc(C#N)cc2)c(C)c(-c2cccc(C(F)F)c2)c1=O` (stereo not shown) [Example 8.24], the midpoint of inhibition, the IC50, lay at 1.7 nM. Compared with the last compound, the IC50 is about 2-fold lower.

Compound `COCCCNC(=O)c1cn(C(C)c2ccc(C#N)cc2)c(C)c(-c2cccc(C(F)F)c2)c1=O` (stereo not shown) [Example 8.25] registered an IC50 of 1.8 nM.

In turn, `COCCNC(=O)c1cn(C(C)c2ccc(C#N)cc2)c(C)c(-c2cccc(C(F)F)c2)c1=O` (stereo not shown) [Example 8.26] returned an IC50 of 1.8 nM. That is a single-digit nanomolar value.

In the case of `CCCNC(=O)c1cn(C(C)c2ccc(C#N)cc2)c(C)c(-c2cccc(C(F)F)c2)c1=O` (stereo not shown) [Example 8.27], the IC50 was 3 nM. This IC50 is about 1.7-fold higher than that of the compound before.

Consider `Cc1c(-c2cccc(C(F)F)c2)c(=O)c(C(=O)NCc2cnn(C)c2)cn1C(C)c1ccc(C#N)cc1` (stereo not shown) [Example 8.28], for which the IC50 came out at 3.3 nM.

For `Cc1c(-c2ccnc(C(F)(F)F)c2)c(=O)c(C(=O)NCCCO)cn1C(C)c1ccc(C#N)cc1` (stereo not shown) [Example 9.1], it took 4.5 nM to reach half-maximal inhibition (IC50).

As to `Cc1c(-c2ccnc(C(F)(F)F)c2)c(=O)c(C(=O)NCCS(C)(=O)=O)cn1C(C)c1ccc(C#N)cc1` (stereo not shown) [Example 9.2], the half-inhibitory concentration (IC50) turned out to be 3.3 nM. This IC50 and that of the compound before are within 1.5-fold of each other.

In the case of `Cc1c(-c2ccnc(C(F)(F)F)c2)c(=O)c(C(=O)NCC[S+](C)[O-])cn1C(C)c1ccc(C#N)cc1` (stereo not shown) [Example 9.3], the IC50 was 3.9 nM.

As for `Cc1c(-c2ccnc(C(F)(F)F)c2)c(=O)c(C(=O)NC2CCNC2=O)cn1C(C)c1ccc(C#N)cc1` (stereo not shown) [Example 9.4], the IC50 stood at 4.1 nM.

The compound `Cc1c(-c2ccnc(C(F)(F)F)c2)c(=O)c(C(=O)NCCCS(C)(=O)=O)cn1C(C)c1ccc(C#N)cc1` (stereo not shown) [Example 9.6] gave an IC50 of 3.2 nM.

In turn, `Cc1nnc(CNC(=O)c2cn(C(C)c3ccc(C#N)cc3)c(C)c(-c3ccnc(C(F)(F)F)c3)c2=O)o1` (stereo not shown) [Example 9.7] showed a concentration for half-maximal inhibition (IC50) of 7 nM.

In the case of `Cc1c(-c2ccnc(C(F)(F)F)c2)c(=O)c(C(=O)NC2CNC(=O)C2)cn1C(C)c1ccc(C#N)cc1` (stereo not shown) [Example 9.8], half-maximal inhibition (IC50) required 4.2 nM.

In the case of `Cc1c(-c2ccnc(C(F)(F)F)c2)c(=O)c(C(=O)NCCO)cn1C(C)c1ccc(C#N)cc1` (stereo not shown) [Example 9.9], the IC50 came to 7.6 nM.

Regarding `Cc1c(-c2ccnc(C(F)(F)F)c2)c(=O)c(C(=O)NCCN(C)C)cn1C(C)c1ccc(C#N)cc1` (stereo not shown) [Example 9.10], half-maximal inhibition (IC50) was put at 12.4 nM.

In turn, `Cc1c(-c2ccnc(C(F)(F)F)c2)c(=O)c(C(=O)NCCCN(C)C)cn1C(C)c1ccc(C#N)cc1` (stereo not shown) [Example 9.11] gave a 50% inhibitory concentration (IC50) of 18.3 nM. This IC50 and that of the compound before are within 1.5-fold of each other.

Take `Cc1c(-c2ccnc(C(F)(F)F)c2)c(=O)c(C(=O)NC2CCN(C)C2=O)cn1C(C)c1ccc(C#N)cc1` (stereo not shown) [Example 9.12]: the IC50 amounted to 4.6 nM. This IC50 lies about 4-fold lower than the previous one.

For the compound `Cc1c(-c2ccnc(C(F)(F)F)c2)c(=O)c(C(=O)NCC#N)cn1C(C)c1ccc(C#N)cc1` (stereo not shown) [Example 9.13], the half-maximal inhibitory concentration (IC50) is 1.7 nM.

In turn, `CCCNC(=O)c1cn(C(C)c2ccc(C#N)cc2)c(C)c(-c2ccnc(C(F)(F)F)c2)c1=O` (stereo not shown) [Example 9.14] registered an IC50 of 7 nM.

With `Cc1c(-c2ccnc(C(F)(F)F)c2)c(=O)c(C(=O)NCC2COC2)cn1C(C)c1ccc(C#N)cc1` (stereo not shown) [Example 9.15], the half-maximal inhibitory concentration (IC50) is 5.7 nM.

In turn, `Cc1c(-c2ccnc(C(F)(F)F)c2)c(=O)c(C(=O)NCc2ccnn2C)cn1C(C)c1ccc(C#N)cc1` (stereo not shown) [Example 9.16] showed an IC50 of 6.7 nM.

In the case of `Cc1c(-c2ccnc(C(F)(F)F)c2)c(=O)c(C(=O)NC2COC2)cn1C(C)c1ccc(C#N)cc1` (stereo not shown) [Example 9.17], half-maximal inhibition (IC50) was put at 10.1 nM.

Consider `Cc1c(-c2ccnc(C(F)(F)F)c2)c(=O)c(C(=O)NCC(N)=O)cn1C(C)c1ccc(C#N)cc1` (stereo not shown) [Example 9.18], for which inhibition was half-maximal at 7.5 nM (IC50). This IC50 and that of the compound before are within 1.5-fold of each other.

`Cc1c(-c2ccnc(C(F)(F)F)c2)c(=O)c(C(=O)NCc2cnn(C)c2)cn1C(C)c1ccc(C#N)cc1` (stereo not shown) [Example 9.19] returned an IC50 of 8.9 nM.

As for `Cc1c(-c2ccnc(C(F)(F)F)c2)c(=O)c(C(=O)NCC2CC2)cn1C(C)c1ccc(C#N)cc1` (stereo not shown) [Example 9.20], it took 10.9 nM to reach half-maximal inhibition (IC50).

Consider `Cc1c(-c2ccnc(C(F)(F)F)c2)c(=O)c(C(=O)NCC2CCOC2)cn1C(C)c1ccc(C#N)cc1` (stereo not shown) [Example 9.21], for which the half-inhibitory concentration (IC50) was 9.5 nM. The IC50 values of the last two compounds are within 1.5-fold of each other.

On to `Cc1c(-c2ccnc(C(F)(F)F)c2)c(=O)c(C(=O)NCC(F)F)cn1C(C)c1ccc(C#N)cc1` (stereo not shown) [Example 9.22], for which the IC50 was determined as 7.3 nM.

For the compound `Cc1c(-c2ccnc(C(F)(F)F)c2)c(=O)c(C(=O)NCC2CCC2)cn1C(C)c1ccc(C#N)cc1` (stereo not shown) [Example 9.23], the midpoint of inhibition, the IC50, lay at 14.4 nM.

As for `Cc1c(-c2ccnc(C(F)(F)F)c2)c(=O)c(C(=O)NCC2CC3CCC2O3)cn1C(C)c1ccc(C#N)cc1` (stereo not shown) [Example 9.24], the midpoint of inhibition, the IC50, lay at 9.8 nM. This IC50 and that of the compound before are within 1.5-fold of each other.

Compound `Cc1c(-c2ccnc(C(F)(F)F)c2)c(=O)c(C(=O)NC2CCOCC2)cn1C(C)c1ccc(C#N)cc1` (stereo not shown) [Example 9.25] yielded an IC50 of 11.4 nM. The IC50 values of the last two compounds are within 1.5-fold of each other.

Compound `Cc1c(-c2ccnc(C(F)(F)F)c2)c(=O)c(C(=O)NCC2CCCO2)cn1C(C)c1ccc(C#N)cc1` (stereo not shown) [Example 9.26] returned an IC50 of 12.1 nM. This IC50 and that of the compound before are within 1.5-fold of each other.

On to `Cc1c(-c2ccnc(C(F)(F)F)c2)c(=O)c(C(=O)NCC2CCO2)cn1C(C)c1ccc(C#N)cc1` (stereo not shown) [Example 9.27], for which the IC50 came out at 13.7 nM.

Compound `Cc1c(-c2ccnc(C(F)(F)F)c2)c(=O)c(C(=O)NCC2CCOCC2)cn1C(C)c1ccc(C#N)cc1` (stereo not shown) [Example 9.28] came in with an IC50 of 12.8 nM.

For `Cc1c(-c2ccnc(C(F)(F)F)c2)c(=O)c(C(=O)NC2CCCCC2O)cn1C(C)c1ccc(C#N)cc1` (stereo not shown) [Example 9.29], 22.3 nM corresponded to half-maximal inhibition (IC50). This IC50 is about 1.7-fold higher than that of the compound before.

Take `Cc1c(-c2ccnc(C(F)(F)F)c2)c(=O)c(C(=O)NCC2CC3CCC2O3)cn1C(C)c1ccc(C#N)cc1` (stereo not shown) [Example 9.30]: it took 16.3 nM to reach half-maximal inhibition (IC50).

`Cc1c(-c2ccnc(C(F)(F)F)c2)c(=O)c(C(=O)NCC(=O)OC(C)C)cn1C(C)c1ccc(C#N)cc1` (stereo not shown) [Example 9.31] came in with an IC50 of 18.7 nM. The IC50 values of the last two compounds are within 1.5-fold of each other.

Compound `Cc1c(-c2ccnc(C(F)(F)F)c2)c(=O)c(C(=O)NCC2CCCO2)cn1C(C)c1ccc(C#N)cc1` (stereo not shown) [Example 9.32] registered an IC50 of 19.4 nM.

`COC(=O)C(C)NC(=O)c1cn(C(C)c2ccc(C#N)cc2)c(C)c(-c2ccnc(C(F)(F)F)c2)c1=O` (stereo not shown) [Example 9.33] registered an IC50 of 23.1 nM.

Regarding `Cc1c(-c2ccnc(C(F)(F)F)c2)c(=O)c(C(=O)NC2CCOC2)cn1C(C)c1ccc(C#N)cc1` (stereo not shown) [Example 9.34], inhibition was half-maximal at 23.5 nM (IC50). The IC50 values of the last two compounds are within 1.5-fold of each other.

`Cc1c(-c2ccnc(C(F)(F)F)c2)c(=O)c(C(=O)NC2CCCC2O)cn1C(C)c1ccc(C#N)cc1` (stereo not shown) [Example 9.35] had an IC50 of 26.2 nM.

In turn, `Cc1c(-c2ccnc(C(F)(F)F)c2)c(=O)c(C(=O)NC2CCCC2O)cn1C(C)c1ccc(C#N)cc1` (stereo not shown) [Example 9.36] yielded an IC50 of 33.9 nM.

The compound `Cc1c(-c2ccnc(C(F)(F)F)c2)c(=O)c(C(=O)NCC2CCCCO2)cn1C(C)c1ccc(C#N)cc1` (stereo not shown) [Example 9.37] had an IC50 of 32.9 nM.

`Cc1c(-c2ccnc(C(F)(F)F)c2)c(=O)c(C(=O)NCC2(C)COC2)cn1C(C)c1ccc(C#N)cc1` (stereo not shown) [Example 9.38] came in with an IC50 of 33.3 nM. The IC50 values of the last two compounds are within 1.5-fold of each other.

Regarding `Cc1c(-c2ccnc(C(F)(F)F)c2)c(=O)c(C(=O)NC2CC3CCC2O3)cn1C(C)c1ccc(C#N)cc1` (stereo not shown) [Example 9.39], the IC50 amounted to 58.3 nM.

`Cc1c(-c2ccnc(C(F)(F)F)c2)c(=O)c(C(=O)NC2COCC2O)cn1C(C)c1ccc(C#N)cc1` (stereo not shown) [Example 9.40]: the IC50 is 69.4 nM. The IC50 values of the last two compounds are within 1.5-fold of each other.

For `Cc1c(-c2ccnc(C(F)(F)F)c2)c(=O)c(C(=O)NC2CCCC2O)cn1C(C)c1ccc(C#N)cc1` (stereo not shown) [Example 9.41], the midpoint of inhibition, the IC50, lay at 100 nM.
